Legend:
[1] = women with a history of spontaneous preterm birth; weekly intramuscular injection; cited from earlier work
[2] = system: Matrix Metalloprotease 9 (MMP-9) activity in HTR8/SVneo cells; assay: TNF-α-induced MMP-9 activity (zymography); format: cell-based; settings: for reduction of TNFα-induced MMP-9 activity compared to stimulated controls: MPA pre-treatment
Text: FIGS. 4A-4C show the effect of knocking down PGRMC1 expression on the efficacy of medroxyprogesterone acetate (MPA) pretreatment in HTR8/SVneo cells.
(§1) Progesterone treatment also blunted TNF α-mediated induction of metalloproteinase 9 (MMP-9) activity (data not shown).
The inhibitory effect of MPA pre-treatment on TNFα-induced activity was diminished when compared to cells treated with the scramble siRNA group (see FIGS. 4B&4C). […] However, in the PGRMC1 siRNA group this effect was lost with MPA pre-treatment reducing MMP-9 activity to a lesser degree when compared with stimulated controls (15%, p=0.100). Both the unstimulated (vehicle) control and the MPA groups are shown in the zymogram. The relative MMP-9 activity represents activity in excess of baseline for each experimental group. The unstimulated (vehicle) control only is represented graphically for both siRNA treatments. Experiments were replicated on 5 separate occasions. Data are mean+standard error of the mean.

[3] = women at risk based on shortened cervical length; vaginal; cited from earlier work
PGRMC1 = PGRMC1 (Homo sapiens, UniProt O00264); settings: cited from earlier work
caspase 3 cleavage = assay: Caspase 3 cleavage following treatment with calcimycin; format: cell-based; settings: data not shown
HTR8/Sv cells = assay: Calcimycin-induced apoptotic cell death, CELLTITER 96 Aqueous Non-Radioactive Cell Proliferation Assay; format: cell-based; settings: pretreatment of HTR8/Sv cells; FIG. 1
Text: FIGS. 1A-1B are A) Western blot and B) graph showing calcium-induced cytrotrophoblast apoptotic cell death reduction by progesterone (R5020) pretreatment.
as §1

Chain of PGRMC1 (O00264 whole entry): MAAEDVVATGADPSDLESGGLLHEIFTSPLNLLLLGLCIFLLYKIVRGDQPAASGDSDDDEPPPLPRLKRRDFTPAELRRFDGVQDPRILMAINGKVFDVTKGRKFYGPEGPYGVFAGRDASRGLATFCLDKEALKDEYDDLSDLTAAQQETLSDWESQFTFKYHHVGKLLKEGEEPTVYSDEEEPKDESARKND

CCCCCC(=O)O[C@]1(C(C)=O)CC[C@H]2[C@@H]3CCC4=CC(=O)CC[C@]4(C)[C@H]3CC[C@@]21C [17-OHPC, 17 alpha hydroxyprogesterone caproate]
reduction in preterm birth rates [1]: 35%

CC(=O)O[C@]1(C(C)=O)CC[C@H]2[C@@H]3C[C@H](C)C4=CC(=O)CC[C@]4(C)[C@H]3CC[C@@]21C [MPA, medroxyprogesterone acetate]
reduction of TNFα-induced MMP-9 activity compared to stimulated controls ([2]; PGRMC1 siRNA group, p=0.100): 15% | reduction of TNFα-induced MMP-9 activity compared to stimulated controls ([2]; scramble siRNA group, p<0.008): 45%

CC(=O)[C@H]1CC[C@H]2[C@@H]3CCC4=CC(=O)CC[C@]4(C)[C@H]3CC[C@]12C [Progesterone, progesterone]
TNF α-mediated induction of MMP-9 activity ([2]; data not shown): blunted | reduction of the risk of preterm birth [3]: 45%

CCC(=O)[C@@]1(C)CC[C@H]2[C@@H]3CCC4=CC(=O)CCC4=C3CC[C@@]21C [R5020]
binding to PGRMC1 (PGRMC1): high binding | caspase 3 cleavage following treatment with calcimycin (caspase 3 cleavage): lower caspase 3 cleavage | protection against calcium-ionophore calcimycin-induced apoptotic cell death (HTR8/Sv cells): protected the cells
